Test results reported in PubChem BioAssay (NCI).
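GI50: concentration for 50% inhibition of growth. TGI: concentration producing complete growth inhibition.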

What was measured:
Experiment in all cases: inhibition of tumour cell growth, NCI panel, 384-well format
A498 renal = test system: A498 renal
A549 NSCLC = test system: A549 NSCLC
ACHN renal = test system: ACHN renal
BT-549 breast = test system: BT-549 breast
CAKI-1 renal = test system: CAKI-1 renal
COLO 205 colon = test system: COLO 205 colon
DU-145 prostate = test system: DU-145 prostate
EKVX NSCLC = test system: EKVX NSCLC
HCC-2998 colon = test system: HCC-2998 colon
HCT-116 colon = test system: HCT-116 colon
HCT-15 colon = test system: HCT-15 colon
HL-60(TB) leukemia = test system: HL-60(TB) leukemia
HOP-62 NSCLC = test system: HOP-62 NSCLC
HOP-92 NSCLC = test system: HOP-92 NSCLC
HS 578T breast = test system: HS 578T breast
HT29 colon = test system: HT29 colon
IGROV1 ovarian = test system: IGROV1 ovarian
KM12 colon = test system: KM12 colon
LOX IMVI melanoma = test system: LOX IMVI melanoma
M14 melanoma = test system: M14 melanoma
MALME-3M melanoma = test system: MALME-3M melanoma
MCF7 breast = test system: MCF7 breast
MDA-MB-231 breast = test system: MDA-MB-231 breast
MDA-MB-435 melanoma = test system: MDA-MB-435 melanoma
MDA-MB-468 breast = test system: MDA-MB-468 breast
MOLT-4 leukemia = test system: MOLT-4 leukemia
NCI-H226 lung = test system: NCI-H226 lung
NCI-H23 lung = test system: NCI-H23 lung
NCI-H322M lung = test system: NCI-H322M lung
NCI-H460 NSCLC = test system: NCI-H460 NSCLC
NCI-H522 lung = test system: NCI-H522 lung
NCI/ADR-RES ovarian = test system: NCI/ADR-RES ovarian
OVCAR-3 ovarian = test system: OVCAR-3 ovarian
OVCAR-4 ovarian = test system: OVCAR-4 ovarian
OVCAR-5 ovarian = test system: OVCAR-5 ovarian
OVCAR-8 ovarian = test system: OVCAR-8 ovarian
PC-3 prostate = test system: PC-3 prostate
RPMI-8226 leukemia = test system: RPMI-8226 leukemia
RXF 393 renal = test system: RXF 393 renal
SF-268 CNS = test system: SF-268 CNS
SF-295 CNS = test system: SF-295 CNS
SF-539 CNS = test system: SF-539 CNS
SK-MEL-28 melanoma = test system: SK-MEL-28 melanoma
SK-MEL-5 melanoma = test system: SK-MEL-5 melanoma
SK-OV-3 ovarian = test system: SK-OV-3 ovarian
SN12C renal = test system: SN12C renal
SNB-19 CNS = test system: SNB-19 CNS
SNB-75 CNS = test system: SNB-75 CNS
SR leukemia = test system: SR leukemia
T-47D breast = test system: T-47D breast
TK-10 renal = test system: TK-10 renal
U251 glioblastoma = test system: U251 glioblastoma
UACC-257 melanoma = test system: UACC-257 melanoma
UACC-62 melanoma = test system: UACC-62 melanoma

FC(F)(F)c1cc(-c2ncn(/C=C\c3nnco3)n2)cc(C(F)(F)F)c1
GI50 (A498 renal): < 0.01 µM | TGI (A498 renal): 0.0822 µM | GI50 (A549 NSCLC): 0.0101 µM | TGI (A549 NSCLC): 11.3 µM | GI50 (ACHN renal): 0.0673 µM | TGI (ACHN renal): 8.77 µM | GI50 (BT-549 breast): < 0.01 µM | TGI (BT-549 breast): 0.0238 µM | GI50 (CAKI-1 renal): < 0.01 µM | TGI (CAKI-1 renal): 18.9 µM | GI50 (COLO 205 colon): < 0.01 µM | TGI (COLO 205 colon): 1.98 µM | GI50 (DU-145 prostate): 0.119 µM | TGI (DU-145 prostate): 0.514 µM | GI50 (EKVX NSCLC): 0.184 µM | TGI (EKVX NSCLC): 9.92 µM | GI50 (HCC-2998 colon): 0.0335 µM | TGI (HCC-2998 colon): 0.334 µM | GI50 (HCT-116 colon): < 0.01 µM | TGI (HCT-116 colon): 0.35 µM | GI50 (HCT-15 colon): 0.0344 µM | TGI (HCT-15 colon): 0.493 µM | GI50 (HL-60(TB) leukemia): < 0.01 µM | TGI (HL-60(TB) leukemia): 0.0544 µM | GI50 (HOP-62 NSCLC): 0.0318 µM | TGI (HOP-62 NSCLC): 0.231 µM | GI50 (HOP-92 NSCLC): 0.13 µM | TGI (HOP-92 NSCLC): 11 µM | GI50 (HS 578T breast): < 0.01 µM | TGI (HS 578T breast): 0.878 µM | GI50 (HT29 colon): < 0.01 µM | TGI (HT29 colon): 0.719 µM | GI50 (IGROV1 ovarian): 0.104 µM | TGI (IGROV1 ovarian): 2.89 µM | GI50 (KM12 colon): 0.139 µM | TGI (KM12 colon): 3.05 µM | GI50 (LOX IMVI melanoma): 0.0423 µM | TGI (LOX IMVI melanoma): 0.206 µM | GI50 (M14 melanoma): 0.108 µM | TGI (M14 melanoma): 0.348 µM | GI50 (MALME-3M melanoma): 0.123 µM | TGI (MALME-3M melanoma): 0.425 µM | GI50 (MCF7 breast): 0.0191 µM | TGI (MCF7 breast): > 100 µM | GI50 (MDA-MB-231 breast): < 0.01 µM | TGI (MDA-MB-231 breast): 0.142 µM | GI50 (MDA-MB-435 melanoma): 0.0207 µM | TGI (MDA-MB-435 melanoma): 0.0825 µM | GI50 (MDA-MB-468 breast): 0.154 µM | TGI (MDA-MB-468 breast): 0.381 µM | GI50 (MOLT-4 leukemia): < 0.01 µM | TGI (MOLT-4 leukemia): < 0.01 µM | GI50 (NCI-H226 lung): < 0.01 µM | TGI (NCI-H226 lung): 0.017 µM | GI50 (NCI-H23 lung): < 0.01 µM | TGI (NCI-H23 lung): 1.95 µM | GI50 (NCI-H322M lung): 0.0506 µM | TGI (NCI-H322M lung): 2.58 µM | GI50 (NCI-H460 NSCLC): < 0.01 µM | TGI (NCI-H460 NSCLC): 0.0795 µM | GI50 (NCI-H522 lung): < 0.01 µM | TGI (NCI-H522 lung): 0.118 µM | GI50 (NCI/ADR-RES ovarian): < 0.01 µM | TGI (NCI/ADR-RES ovarian): 1.33 µM | GI50 (OVCAR-3 ovarian): < 0.01 µM | TGI (OVCAR-3 ovarian): 0.0966 µM | GI50 (OVCAR-4 ovarian): 0.179 µM | TGI (OVCAR-4 ovarian): 0.662 µM | GI50 (OVCAR-5 ovarian): 0.0642 µM | TGI (OVCAR-5 ovarian): 0.588 µM | GI50 (OVCAR-8 ovarian): < 0.01 µM | TGI (OVCAR-8 ovarian): 1.21 µM | GI50 (PC-3 prostate): < 0.01 µM | TGI (PC-3 prostate): 0.0381 µM | GI50 (RPMI-8226 leukemia): < 0.01 µM | TGI (RPMI-8226 leukemia): < 0.01 µM | GI50 (RXF 393 renal): < 0.01 µM | TGI (RXF 393 renal): 0.706 µM | GI50 (SF-268 CNS): < 0.01 µM | TGI (SF-268 CNS): 0.558 µM | GI50 (SF-295 CNS): 0.0169 µM | TGI (SF-295 CNS): 2.3 µM | GI50 (SF-539 CNS): < 0.01 µM | TGI (SF-539 CNS): 0.0112 µM | GI50 (SK-MEL-28 melanoma): 0.0338 µM | TGI (SK-MEL-28 melanoma): 0.386 µM | GI50 (SK-MEL-5 melanoma): 0.0736 µM | TGI (SK-MEL-5 melanoma): 0.252 µM | GI50 (SK-OV-3 ovarian): < 0.01 µM | TGI (SK-OV-3 ovarian): 12.5 µM | GI50 (SN12C renal): 0.194 µM | TGI (SN12C renal): 1.51 µM | GI50 (SNB-19 CNS): 0.0583 µM | TGI (SNB-19 CNS): 1.13 µM | GI50 (SNB-75 CNS): < 0.01 µM | TGI (SNB-75 CNS): 0.113 µM | GI50 (SR leukemia): < 0.01 µM | TGI (SR leukemia): < 0.01 µM | GI50 (T-47D breast): 0.19 µM | TGI (T-47D breast): 6.28 µM | GI50 (TK-10 renal): 0.0164 µM | TGI (TK-10 renal): 0.143 µM | GI50 (U251 glioblastoma): 0.0195 µM | TGI (U251 glioblastoma): 0.19 µM | GI50 (UACC-257 melanoma): 0.239 µM | TGI (UACC-257 melanoma): 2.47 µM | GI50 (UACC-62 melanoma): 0.0125 µM | TGI (UACC-62 melanoma): 0.242 µM
